How the values were obtained:
[1] = tested on: H4; assay: cells; format: functional, cell-based; details: Homo sapiens
Description: SANGER: Inhibition of human H4 cell growth in a cell viability assay.

[2] = tested on: BHY; assay: cells; format: functional, cell-based; details: Homo sapiens;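 note: cell growth inhibition read out by a viability assay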
Description: SANGER: Inhibition of human BHY cell growth in a cell viability assay.

[3] = tested on: CCF-STTG1; assay: cells; format: functional, cell-based; details: Homo sapiens;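 note: growth inhibition of human CCF-STTG1 cells, determined with a cell viability read-out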
Description: SANGER: Inhibition of human CCF-STTG1 cell growth in a cell viability assay.

[4] = tested on: EW-7; assay: SANGER: Inhibition of human EW-7 cell growth in a cell viability assay.; format: functional, cell-based
[5] = tested on: HT-1376; assay: cells; format: functional, cell-based; details: Homo sapiens
Description: SANGER: Inhibition of human HT-1376 cell growth in a cell viability assay.

[6] = tested on: BCPAP; assay: cells; format: functional, cell-based; details: Homo sapiens;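 note: growth inhibition of BCPAP cells, read out in a cell viability assay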
Description: SANGER: Inhibition of human BCPAP cell growth in a cell viability assay.

[7] = tested on: HSC-3; assay: cells; format: functional, cell-based; details: Homo sapiens
Description: SANGER: Inhibition of human HSC-3 cell growth in a cell viability assay.

[8] = tested on: ECC12; assay: cells; format: functional, cell-based; details: Homo sapiens
Description: SANGER: Inhibition of human ECC12 cell growth in a cell viability assay.

[9] = tested on: CAL-33; assay: cells; format: functional, cell-based; details: Homo sapiens;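 note: growth inhibition of CAL-33 cells, read out with a cell viability assay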
Description: SANGER: Inhibition of human CAL-33 cell growth in a cell viability assay.

[10] = tested on: TT; assay: cells; format: functional, cell-based; details: Homo sapiens
Description: SANGER: Inhibition of human TT cell growth in a cell viability assay.

[11] = tested on: PANC-08-13; assay: cells; format: functional, cell-based; details: Homo sapiens
Description: SANGER: Inhibition of human PANC-08-13 cell growth in a cell viability assay.

[12] = tested on: SK-LU-1; assay: cells; format: functional, cell-based; details: Homo sapiens;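 note: cell viability assay measuring growth inhibition of human SK-LU-1 cells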
Description: SANGER: Inhibition of human SK-LU-1 cell growth in a cell viability assay.

[13] = tested on: NCI-H292; assay: cells; format: functional, cell-based; details: Homo sapiens;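 note: growth inhibition of NCI-H292 cells, read out with a cell viability assay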
Description: SANGER: Inhibition of human NCI-H292 cell growth in a cell viability assay.

[14] = tested on: C-4-II; assay: SANGER: Inhibition of human C-4-II cell growth in a cell viability assay.; format: functional, cell-based
[15] = tested on: SK-MES-1; assay: cells; format: functional, cell-based; details: Homo sapiens;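 note: growth inhibition of human SK-MES-1 cells, read out with a cell viability assay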
Description: SANGER: Inhibition of human SK-MES-1 cell growth in a cell viability assay.

[16] = tested on: SW1573; assay: cells; format: functional, cell-based; details: Homo sapiens;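 note: growth inhibition of SW1573 cells, read out with a cell viability assay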
Description: SANGER: Inhibition of human SW1573 cell growth in a cell viability assay.

[17] = tested on: OVCAR-8; assay: cells; format: functional, cell-based; details: Homo sapiens;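 note: growth inhibition of human OVCAR-8 cells, read out by a cell viability assay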
Description: SANGER: Inhibition of human OVCAR-8 cell growth in a cell viability assay.

[18] = tested on: SK-OV-3; assay: cells; format: functional, cell-based; details: Homo sapiens;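 note: growth inhibition of SK-OV-3 human cells, read out with a cell viability assay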
Description: SANGER: Inhibition of human SK-OV-3 cell growth in a cell viability assay.

[19] = tested on: HT-3; assay: cells; format: functional, cell-based; details: Homo sapiens;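 note: growth inhibition measured with a cell viability readout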
Description: SANGER: Inhibition of human HT-3 cell growth in a cell viability assay.

[20] = tested on: RCM-1; assay: cells; format: functional, cell-based; details: Homo sapiens;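 note: growth inhibition of the RCM-1 line, determined with a cell viability readout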
Description: SANGER: Inhibition of human RCM-1 cell growth in a cell viability assay.

[21] = tested on: Calu-1; assay: SANGER: Inhibition of human Calu-1 cell growth in a cell viability assay.; format: functional, cell-based
[22] = tested on: KYSE-270; assay: cells; format: functional, cell-based; details: Homo sapiens;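 note: cell growth inhibition measured with a viability assay in the human KYSE-270 line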
Description: SANGER: Inhibition of human KYSE-270 cell growth in a cell viability assay.

[23] = tested on: HPAF-II; assay: cells; format: functional, cell-based; details: Homo sapiens;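 note: growth inhibition of HPAF-II cells, read out with a cell viability assay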
Description: SANGER: Inhibition of human HPAF-II cell growth in a cell viability assay.

[24] = tested on: NCI-H1436; assay: cells; format: functional, cell-based, Homo sapiens; details: Homo sapiens, NCI-H1436;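 note: growth suppression of human NCI-H1436 cells, determined with a cell viability readout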
Description: SANGER: Inhibition of human NCI-H1436 cell growth in a cell viability assay.

[25] = tested on: NCI-H520; assay: cells; format: functional, cell-based; details: Homo sapiens;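 note: growth inhibition of NCI-H520 cells, measured by a cell viability assay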
Description: SANGER: Inhibition of human NCI-H520 cell growth in a cell viability assay.

[26] = tested on: SNU-475; assay: cells; format: functional, cell-based; details: Homo sapiens
Description: SANGER: Inhibition of human SNU-475 cell growth in a cell viability assay.

[27] = tested on: PF-382; assay: cells; format: functional, cell-based, Homo sapiens; details: Homo sapiens, PF-382
Description: SANGER: Inhibition of human PF-382 cell growth in a cell viability assay.

[28] = tested on: CHP-212; assay: cells; format: functional, cell-based; details: Homo sapiens
Description: SANGER: Inhibition of human CHP-212 cell growth in a cell viability assay.

[29] = tested on: GCT; assay: cells; format: functional, cell-based; details: Homo sapiens;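 note: GCT cell line proliferation inhibition, read out with a cell viability assay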
Description: SANGER: Inhibition of human GCT cell growth in a cell viability assay.

[30] = tested on: CAPAN-1; assay: cells; format: functional, cell-based; details: Homo sapiens;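 note: growth suppression of CAPAN-1 cells, read out by a cell viability assay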
Description: SANGER: Inhibition of human CAPAN-1 cell growth in a cell viability assay.

[31] = tested on: Daoy; assay: cells; format: functional, cell-based; details: Homo sapiens;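 note: daoy cell growth inhibition, read out as cell viability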
Description: SANGER: Inhibition of human Daoy cell growth in a cell viability assay.

[32] = tested on: BC1 cell line; assay: SANGER: Inhibition of human BC-1 cell growth in a cell viability assay.; format: functional, cell-based; details: Homo sapiens, BC1
[33] = tested on: 647-V; assay: cells; format: functional, cell-based; details: Homo sapiens;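 note: growth inhibition of 647-V cells, read out with a cell viability assay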
Description: SANGER: Inhibition of human 647-V cell growth in a cell viability assay.

[34] = tested on: NCI-H460; assay: cells; format: functional, cell-based; details: Homo sapiens;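 note: cell viability assay scoring growth inhibition of human NCI-H460 cells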
Description: SANGER: Inhibition of human NCI-H460 cell growth in a cell viability assay.

[35] = tested on: DMS-53; assay: cells; format: functional, cell-based; details: Homo sapiens;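 note: cell viability assay measuring growth inhibition of human DMS-53 cells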
Description: SANGER: Inhibition of human DMS-53 cell growth in a cell viability assay.

[36] = tested on: NCI-H1618; assay: cells; format: functional, cell-based; details: Homo sapiens;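 note: growth inhibition of human NCI-H1618 cells, measured by a cell viability assay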
Description: SANGER: Inhibition of human NCI-H1618 cell growth in a cell viability assay.

[37] = tested on: NCI-H358; assay: cells; format: functional, cell-based; details: Homo sapiens;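 note: growth inhibition of NCI-H358 human cells, read out with a cell viability assay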
Description: SANGER: Inhibition of human NCI-H358 cell growth in a cell viability assay.

[38] = tested on: HC-1; assay: cells; format: functional, cell-based, Homo sapiens; details: Homo sapiens, HC-1;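 note: growth inhibition of HC-1 cells measured by a cell viability assay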
Description: SANGER: Inhibition of human HC-1 cell growth in a cell viability assay.

[39] = tested on: CHP-126; assay: cells; format: functional, cell-based, Homo sapiens; details: Homo sapiens, CHP-126
Description: SANGER: Inhibition of human CHP-126 cell growth in a cell viability assay.

[40] = tested on: MG-63; assay: cells; format: functional, cell-based; details: Homo sapiens;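 note: growth inhibition of human MG-63 cells, read out with a cell viability assay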
Description: SANGER: Inhibition of human MG-63 cell growth in a cell viability assay.

[41] = tested on: MES-SA; assay: cells; format: functional, cell-based; details: Homo sapiens;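 note: growth inhibition of human MES-SA cells, read out with a cell viability assay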
Description: SANGER: Inhibition of human MES-SA cell growth in a cell viability assay.

[42] = tested on: HMV-2 cell line; assay: cells; format: functional, cell-based; details: Homo sapiens;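 note: growth inhibition of HMV-II cells, read out with a cell viability assay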
Description: SANGER: Inhibition of human HMV-II cell growth in a cell viability assay.

[43] = tested on: JEG-3; assay: cells; format: functional, cell-based; details: Homo sapiens;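 note: growth inhibition of human JEG-3 cells, read out with a cell viability assay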
Description: SANGER: Inhibition of human JEG-3 cell growth in a cell viability assay.

[44] = tested on: NCI-H2228; assay: cells; format: functional, cell-based; details: Homo sapiens;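 note: growth inhibition of human NCI-H2228 cells, read out by a cell viability assay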
Description: SANGER: Inhibition of human NCI-H2228 cell growth in a cell viability assay.

[45] = tested on: SK-MEL3; assay: cells; format: functional, cell-based, SK-MEL-3; details: Homo sapiens;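 note: growth inhibition of human SK-MEL-3 cells, read out with a cell viability assay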
Description: SANGER: Inhibition of human SK-MEL-3 cell growth in a cell viability assay.

[46] = tested on: MIA PaCa-2; assay: cells; format: functional, cell-based; details: Homo sapiens;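 note: growth inhibition of MIA PaCa-2 cells, read out with a cell viability assay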
Description: SANGER: Inhibition of human MIA-PaCa-2 cell growth in a cell viability assay.

[47] = tested on: C32; assay: cells; format: functional, cell-based; details: Homo sapiens;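 note: cell viability assay, with IC50 reflecting inhibition of C32 cell growth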
Description: SANGER: Inhibition of human C32 cell growth in a cell viability assay.

[48] = tested on: COLO 205; assay: cells; format: functional, cell-based; details: Homo sapiens
Description: SANGER: Inhibition of human COLO-205 cell growth in a cell viability assay.

[49] = tested on: NCI-H719; assay: cells; format: functional, cell-based, Homo sapiens; details: Homo sapiens, NCI-H719;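 note: growth inhibition of the cultured cell line, read out with a viability assay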
Description: SANGER: Inhibition of human NCI-H719 cell growth in a cell viability assay.

[50] = tested on: VMRC-RCZ; assay: cells; format: functional, cell-based; details: Homo sapiens
Description: SANGER: Inhibition of human VMRC-RCZ cell growth in a cell viability assay.

Measured: IC50

Cc1ccc(C(=O)Nc2ccc(CN3CCN(C)CC3)c(C(F)(F)F)c2)cc1C#Cc1cnc2cccnn12 [PONATINIB]
360 nM: [6]
225 nM: [3]
78.9 nM: [49]
209 nM: [27]
177 nM: [25]
425 nM: [1]
315 nM: [12]
> 512 nM: [2] | [4] | [5] | [7] | [8] | [9] | [10] | [11] | [13] | [14] | [15] | [16] | [17] | [18] | [19] | [20] | [21] | [22] | [23] | [24] | [26] | [28] | [29] | [30] | [31] | [32] | [33] | [34] | [35] | [36] | [37] | [38] | [39] | [40] | [42] | [43] | [44] | [45] | [46] | [47] | [48]
242 nM: [41]

O=S(=O)(O)c1ccc2cc(/N=N/c3cc(S(=O)(=O)O)c4cccnc4c3O)ccc2c1
> 16000 nM: [1] | [2] | [3] | [4] | [5] | [6] | [7] | [8] | [9] | [10] | [11] | [12] | [13] | [14] | [15] | [16] | [17] | [18] | [19] | [20] | [21] | [22] | [23] | [24] | [25] | [26] | [27] | [28] | [29] | [30] | [31] | [32] | [33] | [34] | [35] | [36] | [37] | [38] | [39] | [50] | [40] | [41] | [42] | [43] | [44] | [45] | [46] | [47] | [48] | [49]

COC(=O)[C@H](CCSC)NC(=O)c1ccc(NC[C@@H](N)CS)cc1-c1ccccc1
> 1020 nM: [1] | [2] | [3] | [4] | [5] | [6] | [7] | [8] | [9] | [10] | [11] | [12] | [13] | [14] | [15] | [16] | [17] | [18] | [19] | [20] | [21] | [22] | [23] | [24] | [25] | [26] | [27] | [28] | [29] | [30] | [31] | [32] | [33] | [34] | [35] | [36] | [37] | [38] | [39] | [50] | [40] | [41] | [42] | [43] | [44] | [45] | [46] | [47] | [48] | [49]
